Experimental data as given in ChEMBL document CHEMBL1157008, “Discovery of 2-{4-[(3S)-piperidin-3-yl]phenyl}-2H-indazole-7-carboxamide (MK-4827): a novel oral poly(ADP-ribose)polymerase (PARP) inhibitor efficacious in BRCA-1 and -2 mutant tumors” (J Med Chem, 2009).
Activity calls are given as the source filed them. The calls are words filed in the database; no cut-off is given here.

How the values were obtained:
[1] = Intrinsic clearance in rat liver microsomes assessed per mg of protein up to 90 mins; assay type: ADME, Microsome
[2] = target: Poly [ADP-ribose] polymerase 1 (Homo sapiens, UniProt P09874); experiment: Inhibition of human PARP1 by SPA
Sequence of Poly [ADP-ribose] polymerase 1 (P09874 whole entry): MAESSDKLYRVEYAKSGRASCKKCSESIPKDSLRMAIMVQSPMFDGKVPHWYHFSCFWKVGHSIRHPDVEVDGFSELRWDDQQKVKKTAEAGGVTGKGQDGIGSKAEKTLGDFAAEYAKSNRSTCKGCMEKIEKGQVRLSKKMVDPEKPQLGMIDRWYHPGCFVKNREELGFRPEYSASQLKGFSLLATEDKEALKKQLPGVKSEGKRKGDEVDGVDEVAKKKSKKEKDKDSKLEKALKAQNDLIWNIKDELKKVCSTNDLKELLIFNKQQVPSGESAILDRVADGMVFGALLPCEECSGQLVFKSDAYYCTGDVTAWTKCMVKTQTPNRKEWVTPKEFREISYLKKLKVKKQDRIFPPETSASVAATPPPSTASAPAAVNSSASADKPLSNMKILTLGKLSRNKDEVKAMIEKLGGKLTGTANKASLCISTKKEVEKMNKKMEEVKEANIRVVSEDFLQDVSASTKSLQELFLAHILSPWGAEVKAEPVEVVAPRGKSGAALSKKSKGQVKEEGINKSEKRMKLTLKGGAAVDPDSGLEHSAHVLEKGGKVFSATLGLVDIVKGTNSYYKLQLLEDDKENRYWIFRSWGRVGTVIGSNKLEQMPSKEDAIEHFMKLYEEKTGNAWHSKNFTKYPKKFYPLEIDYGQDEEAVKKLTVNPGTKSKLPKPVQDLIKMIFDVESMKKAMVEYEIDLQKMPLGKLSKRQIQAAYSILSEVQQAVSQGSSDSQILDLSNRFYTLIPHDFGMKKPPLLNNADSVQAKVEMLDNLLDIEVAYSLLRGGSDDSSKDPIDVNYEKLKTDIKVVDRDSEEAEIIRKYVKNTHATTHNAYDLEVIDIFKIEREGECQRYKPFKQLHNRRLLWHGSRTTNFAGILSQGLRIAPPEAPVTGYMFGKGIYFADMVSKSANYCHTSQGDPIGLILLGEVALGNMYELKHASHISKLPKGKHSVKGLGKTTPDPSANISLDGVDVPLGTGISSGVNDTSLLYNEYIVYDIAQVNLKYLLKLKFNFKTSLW

HeLa [3] = experiment: Antiproliferative activity against BRCA1 deficient human HeLa cells after 7 days by cell titer-blue assay; assay type: functional; settings: 168 h
PARP 1, 2 and 3 [4] = target: T1, PARP 1, 2 and 3 (Homo sapiens, UniProt P09874+Q9Y6F1+Q9UGN5); settings: HeLa
PARP 1, 2 and 3 [5] = target: T1, PARP 1, 2 and 3; experiment: Inhibition of PARP in hydrogen peroxide-induced human HeLa cells assessed as inhibition DNA-damage-induced PARylation; assay type: cell-based
CYP1A2 = target: T2, CYP1A2 (Rattus norvegicus, UniProt P04799); experiment: (§1) Intrinsic clearance in rat liver microsomes assessed per mg of protein up to 60 mins in presence of rat recombinant CYP1A2; assay type: ADME, Microsome; settings: rat liver microsomes with rat recombinant CYP1A2
T2 sequence (P04799 whole entry): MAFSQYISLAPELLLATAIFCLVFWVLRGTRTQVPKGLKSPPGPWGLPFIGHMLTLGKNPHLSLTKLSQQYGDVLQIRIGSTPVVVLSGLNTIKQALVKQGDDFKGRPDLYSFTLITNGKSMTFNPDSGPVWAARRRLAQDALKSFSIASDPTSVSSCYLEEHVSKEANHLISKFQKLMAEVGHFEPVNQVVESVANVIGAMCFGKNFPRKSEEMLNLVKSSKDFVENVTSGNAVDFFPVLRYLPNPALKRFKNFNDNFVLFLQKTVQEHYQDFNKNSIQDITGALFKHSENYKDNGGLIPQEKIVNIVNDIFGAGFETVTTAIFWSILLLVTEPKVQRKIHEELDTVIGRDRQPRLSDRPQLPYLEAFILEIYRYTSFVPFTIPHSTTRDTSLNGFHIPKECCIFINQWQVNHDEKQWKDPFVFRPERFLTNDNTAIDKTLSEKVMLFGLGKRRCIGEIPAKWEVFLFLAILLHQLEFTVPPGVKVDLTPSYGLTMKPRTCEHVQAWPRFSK

[6] = Intrinsic clearance in mouse liver microsomes assessed per mg of protein up to 90 mins; assay type: ADME, Microsome
HeLa [7] = experiment: Antiproliferative activity against human HeLa cells expressing wild type BRCA1 after 7 days by cell titer-blue assay; assay type: functional; settings: 168 h
[8] = Oral bioavailability in rat; assay type: ADME, organism-based; settings: in vivo
[9] = Plasma clearance in rat; assay type: ADME, organism-based
Cytochrome P450 1A2 = target: T3, Cytochrome P450 1A2 (Rattus norvegicus, UniProt P04799); experiment: as §1; assay type: ADME, Microsome; settings: microsomes, 1 h
T3 sequence (P04799 whole entry): T2 sequence (P04799 whole entry)

[10] = Solubility in phosphate buffer; assay type: physicochemical
HeLa [11] = experiment: Selectivity index, ratio of CC50 for BRCA1 proficient human HeLa cells to CC50 for BRCA1 deficient human HeLa cells; assay type: functional
[12] = Antiproliferative activity against HMEC after 6 to 7 days by cell titer-blue assay; settings: human, HMEC cells
MDA-MB-436 [13] = settings: Homo sapiens, 50 mg/kg
Description: Antitumor activity against human MDA-MB-436 cells expressing BRCA1 5396 + 1G>A mutant xenografted in CD1 mouse assessed as tumor regression at 50 mg/kg, po bid for 33 days

CAPAN-1 = experiment: cells; settings: Homo sapiens, CAPAN-1, 312 h
Description: Antiproliferative activity against human Capan1 cells expressing BRCA2 6174delT mutation and loss of wild-type allele after 13 days by cell titer-blue assay

[14] = Antiproliferative activity against human PrEC cells after 6 to 7 days by cell titer-blue assay
MDA-MB-436 [15] = settings: Homo sapiens, 100 mg/kg
Description: Antitumor activity against human MDA-MB-436 cells expressing BRCA1 5396 + 1G>A mutant xenografted in CD1 mouse assessed as tumor regression at 100 mg/kg, po qd for 33 days

cells = settings: Homo sapiens, MDA-MB-436, 144 h
Description: Antiproliferative activity against human MDA-MB-436 cells expressing BRCA1 5396 + 1G>A mutant after 6 days by cell titer-blue assay

[16] = Volume of distribution in rat; assay type: ADME, organism-based; settings: in vivo
[17] = Terminal half life in rat; assay type: ADME, organism-based; settings: in vivo, read-out: beta t1/2 (converted)
[18] = Biodistribution in iv dosed rat urine assessed as tert-butyl (3S)-3-{4-[7-(aminocarbonyl)-2H-indazol-2-yl]phenyl}piperidine-1-carboxylate level within 24 hrs; assay type: ADME, organism-based; settings: in vivo
[19] = Intrinsic clearance in rat intestine microsomes assessed per mg of protein in presence of NADPH; assay type: ADME, Microsome
[20] = Intrinsic clearance in rat kidney microsomes assessed per mg of protein in presence of NADPH; assay type: ADME, Microsome
[21] = Intrinsic clearance in rat liver microsomes assessed per mg of protein in presence of NADPH; assay type: ADME, Microsome
[22] = Biodistribution in iv dosed rat urine within 24 hrs; assay type: ADME, organism-based; settings: in vivo
[23] = Intrinsic clearance in rat lung microsomes assessed per mg of protein in presence of NADPH; assay type: ADME, Microsome
[24] = Metabolic stability in rat heart microsomes assessed as compound degradation in presence of NADPH; assay type: ADME

Compound	microsomal CLint [1] [µL/min/mg]	IC50 [2] [nM]	CC50 (HeLa [3]) [nM]	EC90 (PARP 1, 2 and 3 [4]) [nM]	EC50 (PARP 1, 2 and 3 [5]) [nM]	microsomal CLint (CYP1A2) [µL/min/mg]	microsomal CLint [6] [µL/min/mg]	CC50 (HeLa [7]) [nM]	clearance [9] [mL/min/kg]	also measured
NC(=O)c1cccc2cn(-c3ccc(C4CCCN4)cc3)nc12 (stereo not given)	22	3.1	190	430	31	2.5	4	10000	–	–
NC(=O)c1cccc2cn(-c3ccc(Cl)cc3)nc12	–	24	–	6700	720	–	–	–	–	–
NC(=O)c1cccc2cn(-c3ccc(C4CCCNC4)cc3)nc12 (stereo not given)	11	–	72	220	–	–	1	2000	47	bioavailability [8]: 74%; CL (Cytochrome P450 1A2): 0.3 µL/min/mg
CN(C)Cc1ccc(-n2cc3cccc(C(N)=O)c3n2)cc1	177	3.7	520	630	110	–	1	5600	450	solubility [10]: > 3000 µg/mL; Selectivity Index (HeLa [11]): 10; CL (Cytochrome P450 1A2): 8.7 µL/min/mg
NC(=O)c1cccn2nc(-c3ccccc3)nc12	–	270	–	–	–	–	–	–	–	–
NC(=O)c1cccc2cn(-c3ccc([C@H]4CCCNC4)cc3)nc12	7	–	470	280	–	< 0.1	3	5700	24	bioavailability [8]: 47%
NC(=O)c1cccc2cn(-c3ccc(C4CCNCC4)cc3)nc12	15	9	410	–	–	< 0.1	5	4500	–	–
NC(=O)c1cccc2cn(-c3ccc(CNCCF)cc3)nc12	–	2.1	–	–	> 5000	–	–	–	–	–
NC(=O)c1cccc2cn(-c3ccc(CN4CCCC4)cc3)nc12	–	4.8	1200	450	94	–	–	8100	–	Selectivity Index (HeLa [11]): 5
NC(=O)c1cccc2cn(-c3ccc(CNCC(F)F)cc3)nc12	–	14	> 6600	7600	3400	–	–	> 6600	–	–
NC(=O)c1cccc2cn(-c3ccc(CN4CCOCC4)cc3)nc12	–	17	5300	6200	1200	–	–	> 20000	–	–
CCNCc1ccc(-n2cc3cccc(C(N)=O)c3n2)cc1	–	4.3	1600	2100	150	–	–	7400	–	–
NC(=O)c1cccc2cn(-c3ccc4c(c3)CCNC4)nc12	36	1.4	270	140	13	–	3	5400	–	bioavailability [8]: 22%; Selectivity Index (HeLa [11]): 20; CL (Cytochrome P450 1A2): 0.7 µL/min/mg
NC(=O)c1cccc2cn(-c3ccc4c(c3)CNCC4)nc12	52	2.2	130	310	46	0.7	4	2200	87	Selectivity Index (HeLa [11]): 16
CC(C)NCc1ccc(-n2cc3cccc(C(N)=O)c3n2)cc1	18	6.7	2000	2000	700	0.8	1	10000	131	–
CNC(C)c1ccc(-n2cc3cccc(C(N)=O)c3n2)cc1 (stereo not given)	9	3.7	3100	680	58	2.2	1	14000	58	–
CN(C)CCN(C)Cc1ccc(-n2cc3cccc(C(N)=O)c3n2)cc1	–	5.9	3900	4400	170	–	–	> 20000	–	–
CNCc1cccc(-n2cc3cccc(C(N)=O)c3n2)c1	32	5.3	10300	–	–	5.4	5	> 20000	69	–
CN1CCN(Cc2ccc(-n3cc4cccc(C(N)=O)c4n3)cc2)CC1	34	31	2700	2700	1100	< 0.1	2	7900	8	bioavailability [8]: 11%; Selectivity Index (HeLa [11]): 3
NC(=O)c1cccc2cc(-c3ccccc3)nn12	–	55	–	–	–	–	–	–	–	–
NC(=O)c1cccc2cn(Cc3ccccc3)nc12	–	130	–	> 5000	> 5000	–	–	–	–	–
NC(=O)c1cccc2cn(-c3ccc([C@@H]4CCCNC4)cc3)nc12 [NIRAPARIB]	16	–	33	45	–	–	4	860	28	CC50 [12]: > 5000 nM; bioavailability [8]: 65%; inhibition (MDA-MB-436 [13]): Active; CC50 (CAPAN-1): 90 nM; CC50 [14]: > 5000 nM; inhibition (MDA-MB-436 [15]): Active; CL (Cytochrome P450 1A2): 0.3 µL/min/mg; CC50 (cells): 18 nM
NC(=O)c1cccc2nn(-c3ccccc3)nc12	–	71	–	–	–	–	–	–	–	–
NC(=O)c1cccc2cn(-c3ccc(CN4CCCCC4)cc3)nc12	29	1.9	880	970	180	3.8	3	5800	107	Selectivity Index (HeLa [11]): 5
CNCCc1ccc(-n2cc3cccc(C(N)=O)c3n2)cc1	–	200	19000	–	–	–	–	> 20000	–	–
NC(=O)c1cccc2cn(-c3ccccc3Cl)nc12	–	100	–	–	–	–	–	–	–	–
NC(=O)c1cccc2cn(-c3ccccc3)nc12	123	24	–	6200	3700	–	138	–	30	bioavailability [8]: 41%; Vd [16]: 1.8 L/kg; half-life [17]: 5.1 h
CNC(C)(C)c1ccc(-n2cc3cccc(C(N)=O)c3n2)cc1	11	16	920	900	110	–	< 1	5500	–	CL (Cytochrome P450 1A2): 0.4 µL/min/mg
NC(=O)c1cccc2cn(-c3cccc(Cl)c3)nc12	–	14	–	5600	450	–	–	–	–	–
CNCc1ccc(-n2cc3cccc(C(N)=O)c3n2)cc1	28	3.8	460	740	68	6	3	5400	220	Drug uptake [18]: 50 %ID; bioavailability [8]: 23%; microsomal CLint [19]: 5 µL/min/mg; microsomal CLint [20]: 22 µL/min/mg; Selectivity Index (HeLa [11]): 10; microsomal CLint [21]: 28 µL/min/mg; Drug uptake [22]: 80 %ID; microsomal CLint [23]: 22 µL/min/mg; Stability [24]: Stable
